Series [1] deals with T1, KDR (Homo sapiens, UniProt P35968). The note with it: compound conc. 1000 nM.
Series [2] deals with T1, KDR. Put plainly: cell-based. The note with it: for inhibition at 1 µM: read-out: % Inhibition of KDR kinase autophosphorylation in KDR15 cells, compound conc. 1000 nM; for IC50: IC50 (nM), inhibition of KDR kinase autophosphorylation in KDR15 cells, KDR15 cells, VEGF 50 ng/ml, phospho-KDR-Y996 immunoblot. (In western blotting, separated proteins are transferred to a membrane and probed.)

Series [3] deals with T2, human KDR (VEGF-receptor-2) (Homo sapiens, UniProt P35968).
T2 construct: beginning at Met-806; (5′-ATG GAT CCA GAT GM CTC CCA TTG) and ending at Val-1356; made in house
Put plainly: KDR kinase enzyme assay (DELFIA, KDR-IC-Flag, poly(Glu4-Tyr) peptide). Type of series: biochemical. The note with it: for inhibition at 0.1 µM / inhibition at 1 µM: read-out: % Inhibition.

In series [4] the target is T2, human KDR (VEGF-receptor-2). The series can be described thus: KDR kinase enzyme assay wash-out experiments (irreversible inhibition). In kind it is biochemical. Here is the method:
To determine if compounds bound irreversibly to enzyme, plates were washed after the enzyme plus compound pre-incubation step and prior to the addition of ATP. Parallel plates were tested wherein one plate was processed exactly as above while a second plate was washed three times in 100 μl of 4 mM HEPES, pH 7.4, to remove unbound compound. 1× Kinase buffer (30 μl of 1 mM MnCl2, 4 mM HEPES, pH 7.4, 20 μM Na3VO4) and 20 μl of ATP/MgCl2 were added to the wash-out plate. Detection of phosphotyrosinylated peptide for both plates was performed as described above.
For each inhibitor shown in Table 2, two IC50 determinations are shown, one under normal conditions and the other where an intermediate wash-out step is carried out. […] If there was a large increase in the IC50 value in the wash-out experiment compared to the experiment where there was no wash-out, then it was determined that the compound was behaving as a conventional reversible binding inhibitor.

The subject of series [5] is Human umbilical vein endothelial cells (HUVEC). Put plainly: HUVEC proliferation assay, VEGF-dependent growth ([3H]-thymidine incorporation). In kind it is cell-based. The following applies: Homo sapiens, HUVEC; for inhibition at 0.1 µM: conc. 100 nM; for inhibition at 1 µM: conc. 1000 nM; for inhibition at 10 µM: conc. 10000 nM. A digest of the protocol:
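HUVEC seeded 4000 cells/well, attached overnight, then given compound in serum/VEGF-free EBM plus 50 ng/ml VEGF (final); parallel plates used EGM2 with 2% serum lacking VEGF. Incubation 4-5 days at 37° C. DNA synthesis measured by 5 h [3H]-thymidine (1 μCi/well) incorporation, scintillation-counted.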
For orientation: Uptake of a labelled nucleoside into DNA is a usual measure of proliferation.

Where [6] appears, read: Concentration 100 nM, ATP conc. 10 μM.
Where [7] appears, read: Concentration 1000 nM, ATP conc. 10 μM.
[8] abbreviates: Concentration 1000 nM, ATP conc. 1000 μM.

Values joined by “and” are separate entries in the source; they are usually repeats but may differ in a detail not shown here. Identical values can stand only once. Like-named read-outs stand apart in the source and are kept apart here.

T2 sequence (P35968 806-1356): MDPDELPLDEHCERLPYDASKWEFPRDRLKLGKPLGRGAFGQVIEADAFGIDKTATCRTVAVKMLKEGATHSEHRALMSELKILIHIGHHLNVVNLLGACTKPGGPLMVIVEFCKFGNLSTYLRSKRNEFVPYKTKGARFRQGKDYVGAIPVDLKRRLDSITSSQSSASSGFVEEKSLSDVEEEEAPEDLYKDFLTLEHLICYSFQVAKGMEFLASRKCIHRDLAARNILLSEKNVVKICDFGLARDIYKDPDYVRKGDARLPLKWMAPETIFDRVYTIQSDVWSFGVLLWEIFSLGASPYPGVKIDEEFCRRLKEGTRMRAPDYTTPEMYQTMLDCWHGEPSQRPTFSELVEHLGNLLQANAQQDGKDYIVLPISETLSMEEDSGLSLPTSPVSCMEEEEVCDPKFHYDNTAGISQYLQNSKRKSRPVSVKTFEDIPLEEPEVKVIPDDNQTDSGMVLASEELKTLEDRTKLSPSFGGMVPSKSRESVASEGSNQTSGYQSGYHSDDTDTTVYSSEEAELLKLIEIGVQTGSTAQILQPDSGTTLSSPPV
T1 sequence (P35968 20-1356): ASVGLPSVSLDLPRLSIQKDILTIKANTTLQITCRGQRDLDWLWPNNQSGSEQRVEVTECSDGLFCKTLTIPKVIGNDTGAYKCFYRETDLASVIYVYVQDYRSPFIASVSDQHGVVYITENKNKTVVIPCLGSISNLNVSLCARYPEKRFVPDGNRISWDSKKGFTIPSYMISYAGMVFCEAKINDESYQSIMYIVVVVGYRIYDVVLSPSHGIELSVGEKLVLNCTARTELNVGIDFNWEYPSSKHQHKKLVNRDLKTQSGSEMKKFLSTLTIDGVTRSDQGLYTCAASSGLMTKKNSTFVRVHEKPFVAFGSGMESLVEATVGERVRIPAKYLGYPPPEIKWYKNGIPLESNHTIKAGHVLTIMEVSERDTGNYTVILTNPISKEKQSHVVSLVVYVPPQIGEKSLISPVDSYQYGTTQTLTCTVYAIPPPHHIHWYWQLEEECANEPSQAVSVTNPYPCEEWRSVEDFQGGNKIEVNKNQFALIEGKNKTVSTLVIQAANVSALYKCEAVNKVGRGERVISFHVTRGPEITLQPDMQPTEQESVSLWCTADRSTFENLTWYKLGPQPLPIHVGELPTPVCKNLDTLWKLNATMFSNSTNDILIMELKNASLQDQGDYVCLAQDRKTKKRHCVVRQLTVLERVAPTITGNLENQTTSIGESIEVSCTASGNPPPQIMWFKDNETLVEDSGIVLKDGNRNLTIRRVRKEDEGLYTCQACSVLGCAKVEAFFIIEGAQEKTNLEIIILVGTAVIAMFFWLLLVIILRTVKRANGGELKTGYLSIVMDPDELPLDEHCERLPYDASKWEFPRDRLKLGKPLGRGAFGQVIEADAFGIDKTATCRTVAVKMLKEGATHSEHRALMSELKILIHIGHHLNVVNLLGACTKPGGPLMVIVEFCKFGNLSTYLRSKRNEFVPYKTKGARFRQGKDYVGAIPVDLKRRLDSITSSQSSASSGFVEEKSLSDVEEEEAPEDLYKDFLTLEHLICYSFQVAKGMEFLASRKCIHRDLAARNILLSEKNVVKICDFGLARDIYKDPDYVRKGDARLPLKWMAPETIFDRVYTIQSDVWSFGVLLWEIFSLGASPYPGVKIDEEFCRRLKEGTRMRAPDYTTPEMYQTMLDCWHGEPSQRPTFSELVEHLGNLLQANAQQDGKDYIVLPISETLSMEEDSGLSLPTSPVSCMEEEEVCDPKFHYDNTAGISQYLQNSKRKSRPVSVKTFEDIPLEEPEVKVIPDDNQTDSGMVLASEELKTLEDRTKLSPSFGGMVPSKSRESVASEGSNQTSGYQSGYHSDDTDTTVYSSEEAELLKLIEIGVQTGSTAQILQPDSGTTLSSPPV

For `COc1cc2ncnc(NC3=CC(=O)C(Cl)=CC3=O)c2cc1OC` [Example 2, 2-chloro-5-[(6,7-dimethoxy-4-quinazolinyl)amino]benzo-1,4-quinone], on KDR [1], the “% Inhibition of KDR kinase autophosphorylation in KDR15 cells” value (from here on “% Inhibition … in KDR15 cells”) worked out at 12%. Moreover, the inhibition – broadly, the change of the read-out against control, counted positive when it falls – at 1 µM stood at 18% at KDR [2], 96% in series [3] (setting [7]) and 98% in series [3] (setting [8]). Further, the IC50 (commonly the point on the concentration scale where inhibition reaches its midpoint) in series [3] (ATP conc. 10 μM) is 5.1 nM. The inhibition at 0.1 µM in series [3] (setting [6]) was found to be 83%.
Take `COc1cc2ncnc(NC3=CC(=O)C(C(C)C)=CC3=O)c2cc1OC` [Example 9, 2-[(6,7-dimethoxy-4-quinazolinyl)amino]-5-isopropylbenzo-1,4-quinone]: at KDR [1], the “% Inhibition … in KDR15 cells” value is 55% and 94%. In addition, the inhibition at 0.1 µM in series [3] (setting [6]) was found to be 24%. Besides, the inhibition at 1 µM came to 58% in series [3] (setting [7]) and 33% in series [3] (setting [8]).
For the molecule `COCCOc1cc2ncnc(NC3=CC(=O)C(Oc4ccc(S(N)(=O)=O)cc4)=CC3=O)c2cc1OC` [Example 38, 4-[(4-{[6-methoxy-7-(2-methoxyethoxy)quinazolin-4-yl]amino}-3,6-dioxocyclohexa-1,4-dien-1-yl)oxy] benzenesulfonamide], on KDR [1], the “% Inhibition … in KDR15 cells” value was found to be 97%. Besides, the % Inhibition (in general, the relative decrease from the control value, in per cent) in series [3] (setting [6]) came out at 93%; in series [3] (setting [7]), 95%.
Turning to `COCCOc1cc2ncnc(NC3=CC(=O)C(N(C)c4ccc(OC)c(OC)c4)=CC3=O)c2cc1OC` [Example 73, 2-[(3,4-dimethoxyphenyl)(methyl)amino]-5-{[6-methoxy-7-(2-methoxyethoxy)quinazolin-4-yl]amino}benzo-1,4-quinone], the “% Inhibition … in KDR15 cells” value at KDR [1] is 90% and 143% and 113%. Also, the IC50 is below 15.6 nM on KDR [2]; 1840 nM and > 1000 nM in series [3] (ATP conc. 10 μM). In addition, the inhibition at 1 µM in series [3] (setting [7]) is 30%; in series [3] (setting [8]), -2%. Moreover, in series [3] (Concentration not given, ATP conc. 10 μM), the inhibition at 10 µM turned out to be 13%.
Consider `COc1cc2ncnc(NC3=CC(=O)C(N4CCOCC4)=CC3=O)c2cc1OC` [Example 84, 2-[(6,7-dimethoxyquinazolin-4-yl)amino]-5-morpholin-4-ylbenzo-1,4-quinone], for which the melting point (as a rule, the temperature, or range, at which the solid turns liquid) lay within 249 to 250 °C. Also, the inhibition at 1 µM on KDR [2] came out at 4%. For the same molecule, the inhibition at 1 µM in series [3] (setting [7]) came to 88%. In series [3] (setting [8]), the inhibition at 1 µM is 82%.
Take `COc1cc2ncnc(NC3=CC(=O)C(Nc4ccccc4)=CC3=O)c2cc1OC` [Example 86, 2-anilino-5-[(6,7-dimethoxyquinazolin-4-yl)amino]benzo-1,4-quinone]: the melting point is 258 to 261 °C. This molecule also registered an IC50 in series [4] (no wash) of 40.7 nM. The molecule further returned an IC50 in series [4] (wash out) of 57.1 nM. In addition, the IC50 in series [3] (ATP conc. 10 μM) turned out to be 40.7 nM. The inhibition at 0.1 µM in series [3] (setting [6]) is 58%. In series [3] (setting [7]), the inhibition at 1 µM is 93%. Also, in series [3] (setting [8]), the inhibition at 1 µM turned out to be 96%.
Turning to `COc1cc2ncnc(NC3=CC(=O)C(N(C)C)=CC3=O)c2cc1OC` [Example 88, 2-[(6,7-dimethoxyquinazolin-4-yl)amino]-5-(dimethylamino)benzo-1,4-quinone], the melting point fell in the range of 245 to 250 °C. Further, at KDR [2], the inhibition at 1 µM was 32%. In series [3] (setting [6]), the inhibition at 0.1 µM was 28%. The inhibition at 1 µM in series [3] (setting [7]) stood at 63%. Further, the inhibition at 1 µM in series [3] (setting [8]) turned out to be 48%.
Molecule `CNC1=CC(=O)C(Nc2ncnc3cc(OC)c(OC)cc23)=CC1=O` [Example 89, 2-[(6,7-dimethoxyquinazolin-4-yl)amino]-5-(methylamino)benzo-1,4-quinone] registered a melting point of 283 to 285 °C. Besides, in series [3] (setting [6]), the inhibition at 0.1 µM was determined as 11%. In series [3] (setting [7]), the inhibition at 1 µM turned out to be 18%. In addition, in series [3] (setting [8]), the inhibition at 1 µM is -12%.
For `COCCOc1cc2ncnc(NC3=CC(=O)C(Oc4ccccc4C)=CC3=O)c2cc1OC` [Example 90, 2-{[6-methoxy-7-(2-methoxyethoxy)quinazolin-4-yl]amino}-5-(2-methylphenoxy)benzo-1,4-quinone], the melting point was 134 to 137 °C. In addition, on KDR [2], the IC50 is 236 nM and 147 nM. The inhibition at 0.2 µM on KDR [2] (read-out: % Inhibition of KDR kinase autophosphorylation in KDR15 cells, compound conc. 200 nM) was found to be 29%. Also, inhibition in series [4] (no wash) was half-maximal at 8.8 nM (IC50). Moreover, half-maximal inhibition in series [4] (wash out) (IC50) required 18.5 nM. In addition, in series [5], the inhibition at 0.1 µM was 22%, the inhibition at 1 µM amounted to 15% and the inhibition at 10 µM came to 95%. The IC50 in series [3] (ATP conc. 10 μM) was 30 nM and 7.5 nM and 8.8 nM. Further, in series [3] (setting [7]), the inhibition at 1 µM worked out at 94%. Further, in series [3] (setting [8]), the “% Inhibition” value is 97% and the inhibition at 1 µM was found to be 96%.
`COCCOc1cc2ncnc(NC3=CC(=O)C(Oc4cccnc4)=CC3=O)c2cc1OC` [Example 91, 2-{[6-methoxy-7-(2-methoxyethoxy)quinazolin-4-yl]amino}-5-(pyridin-3-yloxy)benzo-1,4-quinone] displayed a melting point of 189 to 190 °C. Also, on KDR [2], the inhibition at 1 µM was 55%. This molecule yielded an IC50 in series [4] (no wash) of 18.9 nM. The molecule further registered an IC50 in series [4] (wash out) of 18.9 nM. Besides, in series [5], the inhibition at 0.1 µM is 0%, the inhibition at 1 µM was determined as 15% and the inhibition at 10 µM amounted to 93%. In series [3] (ATP conc. 10 μM), this molecule yielded an IC50 of 18.9 nM. In addition, the inhibition at 0.1 µM in series [3] (setting [6]) was 76%. The inhibition at 1 µM in series [3] (setting [7]) turned out to be 96%. The inhibition at 1 µM in series [3] (setting [8]) stood at 97%.
The molecule `COCCOc1cc2ncnc(NC3=CC(=O)C(Oc4ccc(C)cc4)=CC3=O)c2cc1OC` [Example 92, 2-{[6-methoxy-7-(2-methoxyethoxy)quinazolin-4-yl]amino}-5-(4-methylphenoxy)benzo-1,4-quinone] had a melting point of 171 to 172 °C. Moreover, the inhibition at 0.1 µM in series [3] (setting [6]) stood at 92%. Further, the inhibition at 1 µM in series [3] (setting [7]) came to 93%. The inhibition at 1 µM in series [3] (setting [8]) stood at 97%.
`COc1cc2ncnc(NC3=CC(=O)C(Oc4ccccc4)=CC3=O)c2cc1OC` [Example 95, 2-[(6,7-dimethoxyquinazolin-4-yl)amino]-5-phenoxybenzo-1,4-quinone] came in with a melting point of 228 to 234 °C. For the same molecule, it took 4.2 nM to reach half-maximal inhibition in series [4] (no wash) (IC50). The IC50 in series [4] (wash out) stood at 6.5 nM. This molecule also came in with a half-inhibitory concentration (IC50) in series [3] (ATP conc. 10 μM) of 3.7 nM. For the same molecule, the inhibition at 0.1 µM in series [3] (setting [6]) stood at 85%. Also, in series [3] (setting [7]), the inhibition at 1 µM amounted to 96%. The inhibition at 1 µM in series [3] (setting [8]) is 98%.
`COCCOc1cc2ncnc(NC3=CC(=O)C(N4CCCCC4)=CC3=O)c2cc1OC` [Example 101, 2-{[6-methoxy-7-(2-methoxyethoxy)quinazolin-4-yl]amino}-5-piperidin-1-yl-benzo-1,4-quinone] had a melting point of 197 to 200 °C. Besides, in series [5], the inhibition at 0.1 µM was determined as 12%, the inhibition at 1 µM was 36% and the inhibition at 10 µM was found to be 94%.
Turning to `COCCOc1cc2ncnc(NC3=CC(=O)C4(C)OC4C3=O)c2cc1OC` (stereo not shown) [Example 106, 4-{[6-methoxy-7-(2-methoxyethoxy)-4-quinazolinyl]amino}-1-methyl-7-oxabicyclo[4.1.0]hept-3-ene-2,5-dione], the “% Inhibition … in KDR15 cells” value on KDR [1] is 78% and 100% and 59%. Also, half-maximal inhibition in series [3] (ATP conc. 10 μM) (IC50) was put at 339 nM. Also, the inhibition at 1 µM is 69% in series [3] (setting [7]) and 70% in series [3] (setting [8]).
Regarding `COCCOc1cc2ncnc(NC3=CC(=O)C4(Cc5ccccc5)OC4C3=O)c2cc1OC` (stereo not shown) [Example 108, 1-benzyl-4-{[6-methoxy-7-(2-methoxyethoxy)quinazolin-4-yl]amino}-7-oxabicyclo[4.1.0]hept-3-ene-2,5-dione], the melting point lay in the range of 104 to 108 °C. Also, the inhibition at 1 µM at KDR [2] came to 68%. Besides, the IC50 in series [4] (no wash) worked out at 59.8 nM. Moreover, the IC50 in series [4] (wash out) was determined as 82.6 nM.

These data come from US20070299092A1 (Wyeth, priority 2004, published 2007).
